Results taken from patent US9624238B2, “4H-thieno[3,2-C]chromene-based inhibitors of Notum Pectinacetylesterase and methods of their use” (Lexicon Pharmaceuticals, Inc., priority 2011, dated 2017).

Tests used:
[1] = target: T1, human notum pectinacetyltransferase (Homo sapiens, UniProt Q6P988); experiment: Binding assay (OPTS esterase substrate, fluorimetric); type: biochemical
T1 construct: made in house; unpurified conditioned medium used
T1 sequence (Q6P988 20-496): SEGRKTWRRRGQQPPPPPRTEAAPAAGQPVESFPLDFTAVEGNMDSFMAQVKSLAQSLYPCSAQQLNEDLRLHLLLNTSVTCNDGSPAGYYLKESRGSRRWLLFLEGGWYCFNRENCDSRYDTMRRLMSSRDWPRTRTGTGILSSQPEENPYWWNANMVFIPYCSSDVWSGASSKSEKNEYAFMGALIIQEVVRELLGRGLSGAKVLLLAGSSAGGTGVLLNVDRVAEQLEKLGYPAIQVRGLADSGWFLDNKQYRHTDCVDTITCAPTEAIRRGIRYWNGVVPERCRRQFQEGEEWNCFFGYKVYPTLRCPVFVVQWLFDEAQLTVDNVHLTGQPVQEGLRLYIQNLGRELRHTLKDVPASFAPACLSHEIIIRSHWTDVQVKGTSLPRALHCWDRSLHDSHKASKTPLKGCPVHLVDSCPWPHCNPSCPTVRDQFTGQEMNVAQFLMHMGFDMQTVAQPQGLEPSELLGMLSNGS
Procedure: Plasmid containing human notum pectinacetyltransferase in pcDNA3.1(+) vector was transfected into HEK (293 cells and clones were selecting by growing in presence of 400 ug/mL of G418. Condition media from these cells was used for the assay.

[2] = target: T1, human notum pectinacetyltransferase; experiment: Reporter assay (CellSensor LEF/TCF-bla FreeStyle 293F cells, Wnt3a and notum conditioned media); type: cell-based; details: class symbols
Procedure: Plasmid containing human notum pectinacetyltransferase in pcDNA3.1(+) vector was transfected into HEK (293 cells and clones were selecting by growing in presence of 400 ug/mL of G418. The clone containing highest expression of human notum pectinacetyltransferase in the conditioned media was maintained for all future activity assays. L cells overexpressing and secreting Wnt3a into the conditioned media were purchased from ATCC.
The assay protocol was as follows. […] The cell growth medium consisted of DMEM with 10% Dialyzed FBS, 5 μg/ml Blasticidin (Invitrogen, R210-01), 0.1 mM NEAA, 25 mM HEPES and 1×GPS. Cells were then trypsinized by first rinsing with PBS, followed by addition of 5 mL of trypsin and incubation of plates at room temperature for two minutes. A total of 10 mL of assay media (Opti-MEM, plus 0.5% dialyzed FBS, 0.1 mM NEAA, 1 mM sodium pyruvate, 10 mM HEPES, 1×GPS) was then added per 15 cm plate. Cells were counted and suspended at 0.75 million cells per mL. […] After incubation of cells at 37° C. for 3 hours, 10 μL of 30 mM LiCl in assay medium was added per well, followed by incubation at 37° C. for another 3 hours. […] Ten μL of the Wnt3a/notum pentinacetyltransferase mixture was then transferred from Greiner plates to each well of the 384-well plates containing the CellSensor cells.

[3] = given as numeric bound above the legend's highest class
[4] = given as a numeric bound above the legend's range

Row | Compound | IC50 ([1]; class symbols) [nM] | EC50 [2] [nM] | IC50 [1, 3] [nM] | IC50 [1, 4] [nM]
1 | N#Cc1cccc2c1OCc1cc(C(N)=O)sc1-2 | < 1000 | < 50 | – | –
2 | COC(=O)C1CN(C(=O)c2cc3c(s2)-c2ccc(Cl)c(F)c2OC3)CC1c1ccccc1F (centres unmarked) | < 100 | < 50 | – | –
3 | NC(=O)c1cc2c(s1)-c1cc(F)ccc1OCC2 | < 50 | < 50 | – | –
4 | O=C(c1cc2c(s1)-c1cc(F)cc(F)c1SC2)N1CC[C@H](F)C1 | < 1000 | < 50 | – | –
5 | Cc1cc(Cl)cc2c1OCc1cc(C(=O)O)sc1-2 | < 1000 | < 50 | – | –
6 | CC1Cc2cc(C(N)=O)sc2-c2c(F)ccc(F)c21 (centres unmarked) | < 50 | < 50 | – | –
7 | COc1ccc2c(c1)OCc1cc(C(N)=O)sc1-2 | < 1000 | < 100 | – | –
8 | O=C(O)c1cc2c(s1)-c1cc(F)cc(F)c1[S+]([O-])C2 (centres unmarked) [6,8-difluoro-4H-thieno[3,2-c]thiochromene-2-carboxylic acid 5-oxide] | – | < 500 | > 2000 | –
9 | NC(=O)c1cc2c(s1)-c1cc(F)c(F)cc1CC2 | < 50 | < 50 | – | –
10 | COc1cc(F)c2c(c1)-c1sc(C(=O)O)cc1CC2 | < 1000 | < 50 | – | –
11 | O=C(O)c1cc2c(s1)-c1cccc(Cl)c1OC2 | < 1000 | < 50 | – | –
12 | O=C(O)c1cc2c(s1)-c1ccccc1CCC2 | < 1000 | < 1000 | – | –
13 | Cc1ccc(C)c2c1-c1sc(C(=O)O)cc1CS2(=O)=O | – | < 500 | – | > 2000
14 | Cc1ccc(C)c2c1OCc1cc(C(N)=O)sc1-2 | < 100 | < 50 | – | –
15 | NC(=O)c1cc2c(s1)-c1c(cccc1C(F)(F)F)OC2 | < 50 | < 50 | – | –
16 | COC(=O)CNC(=O)c1cc2c(s1)-c1ccccc1CC2 | < 1000 | < 50 | – | –
17 | O=C(O)c1cc2c(s1)-c1cc(Cl)ccc1OCC2 | < 100 | < 100 | – | –
18 | O=C(c1cc2c(s1)-c1ccc(F)c(F)c1CC2)N1CCC(F)C1 (centres unmarked) | < 100 | < 50 | – | –
19 | O=C(c1cc2c(s1)-c1ccc(Cl)c(Cl)c1OC2)N1CCC(F)C1 (centres unmarked) | < 1000 | < 50 | – | –
20 | NC(=O)c1cc2c(s1)-c1cc(Br)cc(Cl)c1OC2 | < 1000 | < 50 | – | –
21 | Cc1ccc2c(c1F)CCc1cc(C(=O)O)sc1-2 | < 100 | < 50 | – | –
22 | CC(C)(C#N)NC(=O)c1cc2c(s1)-c1ccccc1CC2 | < 1000 | < 500 | – | –
23 | O=C(O)c1cc2c(s1)-c1c(cccc1C(F)(F)F)OC2 | < 1000 | < 50 | – | –
24 | NC(=O)c1cc2c(s1)-c1ccc(F)c(F)c1CC2 | < 50 | < 50 | – | –
25 | NC(=O)c1cc2c(s1)-c1cc(Cl)cc(F)c1OC2 | < 100 | < 50 | – | –
26 | Cc1ccc2c(c1Cl)CCc1cc(C(=O)O)sc1-2 | < 100 | < 50 | – | –

Row | Compound | IC50 ([1]; class symbols) [nM] | EC50 [2] [nM] | IC50 [1, 3] [nM] | IC50 [1, 4] [nM]
27 | CC1Cc2cc(C(N)=O)sc2-c2cc(F)ccc21 (centres unmarked) | < 50 | < 50 | – | –
28 | CC1Oc2ccc(F)cc2-c2sc(C(N)=O)cc21 (centres unmarked) | < 100 | < 50 | – | –
29 | COc1ccc2c(c1Cl)CCc1cc(C(=O)NCCO)sc1-2 | < 1000 | < 50 | – | –
30 | Cc1cc2c(cc1C)-c1sc(C(=O)O)cc1CO2 | < 1000 | < 50 | – | –
31 | COc1ccc2c(c1)-c1sc(C(=O)O)cc1CC2 | – | < 500 | > 2000 | –
32 | CC1(C)Cc2cc(C(=O)O)sc2-c2c(F)ccc(F)c21 | < 1000 | < 50 | – | –
33 | O=C(NCCN1CCOCC1)c1cc2c(s1)-c1ccc(Cl)c(F)c1OC2 | – | < 500 | > 2000 | –
34 | CCOC(=O)c1cc2c(s1)-c1ccc(Cl)c(F)c1SC2 | < 1000 | < 100 | – | –
35 | CC1(C)Oc2c(F)cc(F)cc2-c2sc(C(N)=O)cc21 | < 1000 | < 500 | – | –
36 | COCCNC(=O)c1cc2c(s1)-c1ccc(OC)c(Cl)c1CC2 | < 1000 | < 50 | – | –
37 | Cc1cc(Cl)c2c(c1)-c1sc(C(N)=O)cc1CC2 | < 50 | < 50 | – | –
38 | Cc1cccc2c1OCc1cc(C(N)=O)sc1-2 | < 1000 | < 50 | – | –
39 | O=C(O)C1CCN(C(=O)c2cc3c(s2)-c2c(F)ccc(F)c2SC3)C1 (centres unmarked) | < 100 | < 50 | – | –
40 | COC1CCN(C(=O)c2cc3c(s2)-c2cc(F)cc(F)c2SC3)C1 (centres unmarked) | < 100 | < 50 | – | –
41 | NC(=O)c1cc2c(s1)-c1cc(F)cc(Cl)c1SC2 | < 100 | < 50 | – | –
42 | COc1ccc2c(c1Cl)CCc1cc(C(=O)NCCN3CCOCC3)sc1-2 | < 1000 | < 50 | – | –
43 | Cc1ccc2c(c1)-c1sc(C(N)=O)cc1CS2 | < 2000 | < 50 | – | –
44 | COc1cccc2c1S(=O)(=O)Cc1cc(C(=O)O)sc1-2 | – | < 1000 | – | > 2000
45 | COc1ccc2c(c1)CCc1cc(C(=O)O)sc1-2 [7-methoxy-4,5-dihydronaphtho[1,2-b]thiophene-2-carboxylic acid] | < 2000 | < 50 | – | –
46 | O=C(O)c1cc2c(s1)-c1cc(Br)ccc1OC2 | < 100 | < 50 | – | –
47 | COC(=O)C1CCN(C(=O)c2cc3c(s2)-c2cc(F)cc(F)c2SC3)C1 (centres unmarked) | < 1000 | < 50 | – | –
48 | COCCNC(=O)c1cc2c(s1)-c1cc(F)ccc1OCC2 | – | < 500 | > 2000 | –
49 | N#Cc1cccc2c1OCc1cc(C(=O)O)sc1-2 | < 100 | < 50 | – | –
50 | CC1Cc2cc(C(=O)O)sc2-c2c(F)ccc(F)c21 (centres unmarked) | < 50 | < 50 | – | –
51 | O=C(O)c1cc2c(s1)-c1cccc(Cl)c1SC2 | < 2000 | < 50 | – | –
52 | NC(=O)c1cc2c(s1)-c1ccccc1OC2 [4H-thieno[3,2-c]chromene-2-carboxamide] | < 50 | < 50 | – | –

Row | Compound | IC50 ([1]; class symbols) [nM] | EC50 [2] [nM] | IC50 [1, 3] [nM] | IC50 [1, 4] [nM]
53 | O=C(O)c1cc2c(s1)-c1ccc(Cl)c(Cl)c1OCC2 | < 50 | < 50 | – | –
54 | NC(=O)c1cc2c(s1)-c1cccc(F)c1OC2 | < 50 | < 50 | – | –
55 | CC(C)(C)OC(=O)NCCNC(=O)c1cc2c(s1)-c1ccccc1CC2 | < 2000 | < 50 | – | –
56 | CC1Cc2cc(C(N)=O)sc2-c2cc(F)cc(F)c21 (centres unmarked) | < 50 | < 50 | – | –
57 | Cc1cc(C)c2c(c1)-c1sc(C(=O)NCC(=O)O)cc1CC2 [2-(6,8-dimethyl-4,5-dihydronaphtho[1,2-b]thiophene-2-carboxamido)acetic acid] | < 1000 | < 100 | – | –
58 | CCC1Cc2cc(C(=O)O)sc2-c2c(F)ccc(F)c21 (centres unmarked) | < 1000 | < 50 | – | –
59 | CC(=O)N1Cc2cc(C(=O)O)sc2-c2ccccc21 | < 2000 | < 100 | – | –
60 | COc1ccc2c(c1C#N)CCc1cc(C(N)=O)sc1-2 | < 1000 | < 50 | – | –
61 | NC(=O)c1cc2c(s1)-c1ccc(Cl)c(F)c1OC2 | < 50 | < 50 | – | –
62 | O=C(O)c1cc2c(s1)-c1cc(Br)cc(Cl)c1OC2 | < 50 | < 50 | – | –
63 | O=C(O)c1cc2c(s1)-c1ccc(Cl)c(Cl)c1SC2 | < 100 | < 50 | – | –
64 | Cc1cc(F)c2c(c1)-c1sc(C(N)=O)cc1CC2 | < 50 | < 50 | – | –
65 | Cc1cc(Cl)cc2c1OCc1cc(C(N)=O)sc1-2 | < 1000 | < 50 | – | –
66 | Cc1cc(C)c2c(c1)-c1sc(C(=O)O)cc1CO2 | < 1000 | < 50 | – | –
67 | Cc1ccc(C)c2c1OCc1cc(C(=O)O)sc1-2 | < 2000 | < 50 | – | –
68 | Cc1ccc2c(c1F)OCc1cc(C(=O)O)sc1-2 | < 1000 | < 50 | – | –
69 | Cc1c(F)ccc2c1OCc1cc(C(N)=O)sc1-2 | < 50 | < 50 | – | –
70 | O=C(O)c1cc2c(s1)-c1cccc(F)c1CC2 | < 50 | < 50 | – | –
71 | O=C(O)c1cc2c(s1)-c1c(Cl)ccc(Cl)c1OC2 | < 100 | < 50 | – | –
72 | O=C(O)c1cc2c(s1)-c1cc(F)c(F)cc1S(=O)(=O)C2 | < 2000 | < 500 | – | –
73 | Cc1cc(F)cc2c1SCc1cc(C(=O)O)sc1-2 | < 1000 | < 50 | – | –
74 | NC(=O)c1cc2c(s1)-c1cc(F)c(F)c(F)c1SC2 | < 50 | < 50 | – | –
75 | Cc1cccc2c1OCc1cc(C(=O)O)sc1-2 | < 2000 | < 50 | – | –
76 | O=C(O)c1cc2c(s1)-c1sc(Cl)cc1CC2 | < 50 | < 500 | – | –
